This assay concerns RhoA activation by other RhoGEFs (p63RhoGEF, Duet, Trio, LARG, Ost1, PDZRhoGEF and others) in HEK293 cells. The assay is described as follows: SRE luciferase reporter assay, other RhoGEFs expressed. It is filed as cell-based, human. To be noted: Scaff10 50 μM. As to the method: Luciferase reporter gene assays were performed with the Dual Luciferase Reporter Assay System (Promega) according to manufactures protocol and as previously reported. In brief, HEK293 cells were seeded and co-transfected with the indicated plasmids together with pSRE.L reporter plasmid encoding firefly luciferase (kindly provided from Dr J. Mao and Dr. D. Wu, Rochester, NY) and pRL-TK control vector (Promega, Mannheim, Germany) encoding renilla luciferase. The transfected cells were further cultured in DMEM with 0.5% FCS for 24 h, lysed with passive lysis buffer (Promega). Luciferase activities was measured an Envision Instrument (Perkin Elmer, Rodgau, Germany) in white 96-well plates. […] In Western blots, the protein was detected with primary polyclonal antibody (rabbit; Gramsch, 1:1000). […] AKAP-Lbc was detected with a specific anti-AKAP-Lbc antibody (Abcam; #ab99377; 1:1000). […]
Fig 7 Scaff10-8 inhibits the AKAP-Lbc-mediated activation of RhoA in cells. […] Statistically significant differences were determined applying one-way ANOVA with posthoc Bonferroni. […]
in luciferase activity induced by other GEFs. n=3; statistically significant differences were not found, as confirmed by statistical analysis using ANOVA. […] The fraction of active RhoA was determined using Rhotekin pulldown assays as described. […]
A general note: Reporter assays use an easily measured gene product as a stand-in for the process of interest.

For the compound `COc1ccc(-c2coc3cc4oc(=O)c(C)c(C)c4cc23)cc1` [Scaff10, 3-(4-Methoxyphenyl)-5,6-dimethyl-furo[3,2-g]chromen-7-one], the “luciferase activity induced by other GEFs” value was “does not affect”.

These data come from paper PMC5786306, “An AKAP-Lbc-RhoA interaction inhibitor promotes the translocation of aquaporin-2 to the plasma membrane of renal collecting duct principal cells” (PLoS ONE, 2018).
